# How the values were obtained:
# [1] = test system: tumor endothelial cells (CT26.CL25 colon cancer tumor); test: Colon CT26 ex vivo model of tumor angiogenesis; assay type: cell-based; conditions: Mus musculus, CT26, 48 h, read-out: Cell death
# Method: This example describes a procedure to prepare a primary tumor angiogenesis model for assessing the efficacy of anti-cancer candidate agents.
# 1. The day before the experiment, spray all necessary tools with 70% ethanol and sterilize them under UV light overnight, including blade, dissecting and micro-dissecting scissors and […]. Place 24-well dishes at 4° C. to pre-chill plates and thaw Matrigel 24 hours before tumor dissection.
# 2. Spray 70% ethanol on working bench. Prepare two sterile petri dishes with 10 mL sterile PBS. Steps 3 and 4 are for mouse tumor models. For fresh human tumor, directly go to step 5.
# 3. Euthanize the tumor-bearing mice. Spray 70% ethanol on the mouse and remove the tumor using sterilized dissecting tools (avoid the fur). Rinse the tumor in petri dish with sterile PBS to remove ethanol and fur. Transfer the tumor to a new petri dish with PBS for dissection. Place the dish on ice.
# 4. Using pre-chilled sterile pipet tips to seed regular Matrigel in 24 well plates on ice. Matrigel (30 μL) is dropped in the middle of each well without touching the edge of the well (avoid introducing bubbles if possible).
# 5. Cut the tumor in halves using the sterile blade. Identify and isolate healthy tumor tissue that is not necrotic and is within the tumor capsule. Cut the healthy tumor tissue into small pieces. For instance, a suitable size for the tumor tissue is 0.5 mm (H)×0.5 mm (L)×0.3 mm (D) with a total volume of 0.075 mm^3.
# 6. Gently transfer and embed each tumor piece in the Matrigel drop in the 24-well plate. Place the embedded piece in the bottom and middle of each Matrigel drop. Keep the plate on ice all the time.
# 7. After seeding the tumor pieces, plates are incubated in a 37° C. cell culture incubator without medium for 10 minutes in order for the Matrigel to solidify.
# 8. Endothelial Growth Medium (0.5 mL) is added to each well and incubated at 37° C. with 5% CO2. Wait until the new endothelial cells have grown out of the tumor or are larger than 3 mm in diameter until treatment. This usually takes 4 days for the LL2 Lewis lung cancer model and 7 days for the CT26 colon cancer model. For human tumor models, the growth time is typically 2-3 weeks, depending on the tumor type. Media is changed every 4 days during prolonged culture. Typically, when the tumor tissue grows to 2 mm in diameter, it is good for drug testing. A size of about 3 mm in diameter can make visualization easier.
# 9. When the assay is ready to be analyzed for cell death (e.g., 48 hours after drug addition), prepare the dye mixture by mixing 6 μL of green dye to stain live cells (5 mg/mL Fluorescein diacetate or FDA in DMSO) with 30 μL of red dye (2.5 mg/mL Propidium iodide or PI in PBS) to stain dead cells in an Eppendorf tube. The FDA dye needs to be stored frozen in a −20° C. freezer because it has a labile ester bond.
# 10. Add 1 μL of the dye mixture to each well of the 24-well dish. It is usually performed one 24-well dish at a time given the amount of time needed to take pictures (the green dye is not as stable in the cells in the long term).
# 11. Gently rock the dish a few times to mix the dye with the media in the wells and incubate the dish at 37° C. for 10 min (too long incubation can make the green signal too intense).
# 12. Wash each well with 0.5 mL of sterile PBS and then add 0.5 mL of phenol red free SFM to each well. Alternatively 0.5 mL of regular Endothelial Cell Growth Media can be added to each well if this well needs to be continuously maintained after the experiment.
# 13. Look through all wells on an inverted microscope using the 2× objective lens to observe morphological changes.
# 14. Taking pictures in the red and green channels would allow not only the recording of the result but also more accurate quantitation of the result. To take pictures for all the wells, first pick a well that has robust red and green signals. […]
# [2] = test system: tumor endothelial cells (LL/2 lung cancer tumor); test: Lung LL2 ex vivo model of tumor angiogenesis; assay type: cell-based, mouse; conditions: for cytotoxicity at 40 µM / cytotoxicity at 20 µM: Mus musculus, Endothelial cell, 48 h, read-out: Cell death; for Cell death: Lung LL2 ex vivo, drug treatment two days
# Procedure, shortened: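 Read-out is live/dead fluorescence imaging (fluorescein diacetate green, propidium iodide red, 10 min at 37° C) at 2×, taken e.g. 48 h after drug addition. Fragments of mouse LL2 tumor are cultured in Matrigel with endothelial growth medium, usually 4 days, until new endothelial cells grow out, then treated.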
Structure (SMILES),cytotoxicity at 40 µM [1],cytotoxicity at 40 µM [2],also measured
"COc1ccc(S(=O)(=O)c2cnc3ccc(OC(F)(F)F)cc3c2N2CCC(N3CCCCC3)CC2)cc1OC [compound 56, 4-([1,4′-bipiperidin]-1′-yl)-3-((3,4-dimethoxyphenyl)sulfonyl)-6-(trifluoromethoxy)quinoline]",30%,20%,
"CCc1ccc(S(=O)(=O)c2cnc3ccc(OC(F)(F)F)cc3c2NN2CCN(C)CC2)cc1 [compound 50, 3-((4-ethylphenyl)sulfonyl)-N-(4-methylpiperazin-1-yl)-6-(trifluoromethoxy)quinolin-4-amine]",100%,90%,
"CCc1ccc(S(=O)(=O)c2cnc3ccc(OC(F)(F)F)cc3c2-n2ccnn2)cc1 [compound 110, 3-((4-ethylphenyl)sulfonyl)-4-(1H-1,2,3-triazol-1-yl)-6-(trifluoromethoxy)quinoline]",10%,,cytotoxicity at 20 µM [2]: 95%
"CCCCCCCOc1ccc(S(=O)(=O)c2cnc3ccc(SC)cc3c2N2CCC(N3CCCCC3)CC2)cc1 [compound 219, 4-([1,4′-bipiperidin]-1′-yl)-3-((4-(heptyloxy)phenyl)sulfonyl)-6-(methylthio)quinoline]",90%,60%,
"CCCCOc1ccc(S(=O)(=O)c2cnc3ccc(OC(F)(F)F)cc3c2NN2CCN(C)CC2)cc1 [compound 92, 3-((4-butoxyphenyl)sulfonyl)-N-(4-methylpiperazin-1-yl)-6-(trifluoromethoxy)quinolin-4-amine]",0%,,cytotoxicity at 20 µM [2]: 10%
"CCCCN(CCCC)c1c(S(=O)(=O)c2ccc(OC)cc2)cnc2ccc(C(=O)OCC)cc12 [compound 155, ethyl 4-(dibutylamino)-3-((4-methoxyphenyl)sulfonyl)quinoline-6-carboxylate]",20%,,Cell death ([2]; Conc. 40 μm): 80%
"CCOC(=O)c1ccc2ncc(S(=O)(=O)c3ccc(CC)cc3)c(-n3cncn3)c2c1 [compound 80, ethyl 3-((4-ethylphenyl)sulfonyl)-4-(1H-1,2,4-triazol-1-yl)quinoline-6-carboxylate]",,,cytotoxicity at 10 µM [1]: 100%; cytotoxicity at 20 µM [2]: 100%
"CCCCCCCOc1ccc(S(=O)(=O)c2cnc3ccc([S+](C)[O-])cc3c2N2CCC(N3CCCC(O)C3)CC2)cc1 (stereo not shown) [compound 254, 1′-(3-((4-(heptyloxy)phenyl)sulfonyl)-6-(methylsulfinyl)quinolin-4-yl)-[1,4′-bipiperidin]-3-ol]",,,cytotoxicity at 10 µM [1]: 40%; cytotoxicity at 20 µM [2]: 100%
"CCc1ccc(S(=O)(=O)c2cnc3ccc(OC(F)(F)F)cc3c2N2CCCN(CC(=O)O)CC2)cc1 [compound 42, 2-(4-(3-((4-ethylphenyl)sulfonyl)-6-(trifluoromethoxy)quinolin-4-yl)-1,4-diazepan-1-yl)acetic acid]",0%,30%,
"CCCCCCCOc1ccc(S(=O)(=O)c2cnc3ccc([S+](C)[O-])cc3c2N2CCN(C)CC2)cc1 (stereo not shown) [compound 259, 3-((4-(heptyloxy)phenyl)sulfonyl)-4-(4-methylpiperazin-1-yl)-6-(methylsulfinyl)quinoline]",,,cytotoxicity at 20 µM [1]: 100%; cytotoxicity at 20 µM [2]: 95%
"CCc1ccc(S(=O)(=O)c2cnc3ccc(OC(F)(F)F)cc3c2NCCO)cc1 [compound 95, 2-((3-((4-ethylphenyl)sulfonyl)-6-(trifluoromethoxy)quinolin-4-yl)amino)ethan-1-ol]",0%,10%,
"COc1ccc(S(=O)(=O)c2cnc3ccc(OC(F)(F)F)cc3c2NN2CCN(C)CC2)cc1OC [compound 88, 3-((3,4-dimethoxyphenyl)sulfonyl)-N-(4-methylpiperazin-1-yl)-6-(trifluoromethoxy)quinolin-4-amine]",60%,70%,
"CCc1ccc(S(=O)(=O)c2cnc3ccc(OC(F)(F)F)cc3c2N2CCC(OCCN(CC)CC)CC2)cc1 [compound 101, N,N-diethyl-2-((1-(3-((4-ethylphenyl)sulfonyl)-6-(trifluoromethoxy)quinolin-4-yl)piperidin-4-yl)oxy)ethan-1-amine]",,,cytotoxicity at 20 µM [1]: 50%; Cell death ([2]; Conc. 20 μm): 100%
"CCCCOc1ccc(S(=O)(=O)c2cnc3ccc(C(=O)OCC)cc3c2N2CCC(N3CCC(O)CC3)CC2)cc1 [compound 161, ethyl 3-((4-butoxyphenyl)sulfonyl)-4-(4-hydroxy-[1,4′-bipiperidin]-1′-yl)quinoline-6-carboxylate]",100%,90%,
"CCCCOc1ccc(S(=O)(=O)c2cnc3ccc(C(=O)NCCO)cc3c2N2CCC(N3CCCCC3)CC2)cc1 [compound 202, 4-([1,4′-bipiperidin]-1′-yl)-3-((4-butoxyphenyl)sulfonyl)-N-(2-hydroxyethyl)quinoline-6-carboxamide]",10%,,Cell death ([2]; Conc. 40 μm): 30%
"COc1ccc(S(=O)(=O)c2cnc3ccc(OC(F)(F)F)cc3c2N2CCCN(C)CC2)cc1OC [compound 57, 3-((3,4-dimethoxyphenyl)sulfonyl)-4-(4-methyl-1,4-diazepan-1-yl)-6-(trifluoromethoxy)quinoline]",60%,40%,
"CCCCOc1ccc(S(=O)(=O)c2cnc3ccc([S+](C)[O-])cc3c2N2CCC(N3CCCC(O)C3)CC2)cc1 (stereo not shown) [compound 208, 1′-(3-((4-butoxyphenyl)sulfonyl)-6-(methylsulfinyl)quinolin-4-yl)-[1,4′-bipiperidin]-3-ol]",20%,50%,
"CCc1ccc(S(=O)(=O)c2cnc3ccc(OC(F)(F)F)cc3c2N2CCC(CO)CC2)cc1 [compound 48, (1-(3-((4-ethylphenyl)sulfonyl)-6-(trifluoromethoxy)quinolin-4-yl)piperidin-4-yl)methanol]",10%,60%,
"CCCCOc1ccc(S(=O)(=O)c2cnc3ccc(C(=O)OCC)cc3c2N2CCSCC2)cc1 [compound 191, ethyl 3-((4-butoxyphenyl)sulfonyl)-4-thiomorpholinoquinoline-6-carboxylate]",10%,30%,
"CCOC(=O)c1ccc2ncc(S(=O)(=O)c3ccc(CC)cc3)c(NN3CCN(C)CC3)c2c1 [compound 84, ethyl 3-((4-ethylphenyl)sulfonyl)-4-((4-methylpiperazin-1-yl)amino)quinoline-6-carboxylate]",100%,100%,
"CCCCOc1ccc(S(=O)(=O)c2cnc3ccc(OC(F)(F)F)cc3c2N2CCC(N3CCC(O)CC3)CC2)cc1 [compound 152, 1′-(3-((4-butoxyphenyl)sulfonyl)-6-(trifluoromethoxy)quinolin-4-yl)-[1,4′-bipiperidin]-4-ol]",30%,,cytotoxicity at 20 µM [2]: 20%
"CCCCOc1ccc(S(=O)(=O)c2cnc3ccc([S+](C)[O-])cc3c2N2CCCN(CCN3CCCCC3)CC2)cc1 (stereo not shown) [compound 209, 3-((4-butoxyphenyl)sulfonyl)-6-(methylsulfinyl)-4-(4-(2-(piperidin-1-yl)ethyl)-1,4-diazepan-1-yl)quinoline]",90%,60%,
"CCOC(=O)c1ccc2ncc(S(=O)(=O)c3ccc(OC)cc3)c(N(CCO)CCO)c2c1 [compound 156, ethyl 4-(bis(2-hydroxyethyl)amino)-3-((4-methoxyphenyl)sulfonyl)quinoline-6-carboxylate]",0%,,Cell death ([2]; Conc. 40 μm): 30%

# Source: patent publication US11884647B2, “Compounds and methods for targeting pathogenic blood vessels” (THE REGENTS OF THE UNIVERSITY OF CALIFORNIA, priority 2019, dated 2024)
